Reference: patent US20240376433A1, “STEM CELL INDUCTION INTO PRECHONDROCYTES AND DIFFERENTIATION INTO CHONDROCYTES BY CIPROFLOXACIN” (SMART CELL LAB CO., LTD., priority 2021, published 2024)

Key:
[1] = system: stem cells; test: Induction of differentiation of stem cells into chondrocytes (3D), Alcian blue staining; type: cell-based; settings: 3D culture, 0.1 to 6 μM ciprofloxacin, 16 days
Experimental: Stem cells (collected from tissue donated by a hospital for non-profit patient treatment) were cultured by attaching 80% or more of the stem cells to a Dulbecco's modified Eagle's medium (DMEM) or a-MEM containing 1 to 10% FBS. Thereafter, the cells were collected and counted using Trypsin-EDTA, and 5×10^5 cells were inoculated into a 15 ml conical tube. A medium containing 0.1 to 6 μM ciprofloxacin was centrifuged to settle the cells at 150 g using a centrifuge (Hanil Science Co., Ltd., Combi415). The cells were cultured in a 5% CO2 incubator at 37° C. while exchanging the medium every 2 to 3 days. The stem cells induced to differentiate for 16 days were washed with DPBS and fixed with 4% paraformaldehyde for 1 hour. The completely fixed cells were stained using an Alcian blue solution (Merck, B8438) for 1 hour to 24 hours. Thereafter, the cells were washed once with 1 N HCl, and then further washed three times with sterile distilled water. Finally, the washed sample was observed.

[2] = system: stem cells; test: Induction of differentiation of stem cells into chondrocytes (2D), Alcian blue staining; type: cell-based; settings: 2D culture, induced to differentiate for 16 days
Experimental: Stem cells (collected from tissue donated by a hospital for non-profit patient treatment) were cultured by attaching 80% or more of the stem cells to a Dulbecco's modified Eagle's medium (DMEM) or a-MEM containing 1 to 10% FBS. Thereafter, the cells were collected using Trypsin-EDTA, counted, seeded at 1×10^3 cells/well in a 96-well plate, and attached to the plate for 24 hours. […] Thereafter, the stem cells induced to differentiate for 16 days were washed with DPBS and fixed with 4% paraformaldehyde for 1 hour. The completely fixed cells were stained using an Alcian blue solution (Merck, B8438) for 1 hour to 1 day. Thereafter, the cells were washed once with 1 N HCl, and then further washed three times with sterile distilled water. Finally, the washed sample was observed under a microscope.

[3] = system: stem cells; settings: stem cells cultured in medium with ciprofloxacin
Experimental: Stem cells (collected from tissue donated by a hospital for non-profit patient treatment) were cultured by attaching 80% or more of the stem cells to a Dulbecco's modified Eagle's medium (DMEM) or a-MEM containing 1 to 10% FBS.
Thereafter, the cells were collected using Trypsin-EDTA, counted, seeded at 1×10^3 cells/well in a 96-well plate, and attached to the plate for 24 hours. Thereafter, ciprofloxacin (Samsung Pharmaceutical, ciprofloxacin injection) was administered according to the concentration, and then cytotoxicity was confirmed for a specific time (up to 166 hours). Next, each well was treated with Cell Counting Kit-8 (hereinafter referred to as CCK, DOJINDO, Cat. No. CK04-13) at 10 μl/well, and then cultured at 37° C. in a 5% CO2 incubator for 1 hour.
The absorbance was measured using an absorbance meter (Bio-Tek, Epoch2) and quantitatively calculated.

`O=C(O)c1cn(C2CC2)c2cc(N3CCNCC3)c(F)cc2c1=O` [ciprofloxacin] was tested. Which “differentiation into chondrocytes, Alcian blue staining (3D)” value [1] did it give?
Its value is “Alcian blue staining, which appears depending on SOX9, was present throughout the chondrocytes”.

What about the “differentiation into chondrocytes, Alcian blue staining (2D)” value [2] of the same molecule?
Its value is “Alcian blue staining, which appears depending on SOX9, was present throughout the chondrocytes”.

And the “cell viability compared to a control (CONT)” value [3]?
Its value is “a significant difference in cell viability was not exhibited”.
